Laboratory results as given in ChEMBL document CHEMBL3885861, “Open TG-GATES”.

Species on record: Rattus norvegicus
Assay: Open TG-GATES - Regimen: Daily Repeat
Format: toxicity, organism-based, Sprague-Dawley
Set-up: regimen Daily Repeat, gender Male, age 6 weeks
Conditions: in vivo, po, 0 mg/kg, route gavage, dose level Control; for APTT / Bas / Eos / Fbg / Hb / Ht / Lym / MCH / MCHC / MCV / Mono / Neu / PT / Plat / RBC / Ret / WBC: tissue Blood; for KIDNEY_L / KIDNEY_R / KIDNEY_TOTAL: tissue Kidney; for LIVER: tissue Liver; for A/G / ALP / ALT / AST / BUN / CRE / Ca / Cl / DBIL / GLC / IP / K / LDH / Na / PL / RALB / TBIL / TC / TG / TP / gamma-GTP: tissue Plasma

Work on `CC[C@@H](CO)NCCN[C@@H](CC)CO` [ETHAMBUTOL] yielded a TERMINAL_BW (72 h, time 3 day) of 245.1 g, an APTT (72 h, time 3 day) of 21.9 s and a Bas (72 h, time 3 day) of 0%. For the same molecule, the Eos (72 h, time 3 day) was 1%, the Fbg (72 h, time 3 day) was 308.2 mg/dL and the Hb (72 h, time 3 day) was 13.6 g/dL. For the same molecule, the Ht (72 h, time 3 day) was 38.8%, the Lym (72 h, time 3 day) was 80.6% and the MCH (72 h, time 3 day) was 21.9 pg. The MCHC (72 h, time 3 day) was 34.9%, the MCV (72 h, time 3 day) was 62.6 fL and the Mono (72 h, time 3 day) was 3.2%. It also gave a Neu (72 h, time 3 day) of 13.8%, a PT (72 h, time 3 day) of 16.1 s and a Plat (72 h, time 3 day) of 127.2 x10_4/uL. For the same molecule, the RBC (72 h, time 3 day) was 619.8 x10_4/ul, the Ret (72 h, time 3 day) was 6.5% and the WBC (72 h, time 3 day) was 109.6 x10_2/uL. The KIDNEY_L (72 h, time 3 day) was 1.1 g, the KIDNEY_R (72 h, time 3 day) was 1.1 g and the KIDNEY_TOTAL (72 h, time 3 day) was 2.2 g. It also gave an LIVER (72 h, time 3 day) of 11.5 g, an A/G (72 h, time 3 day) of 1.1 and an ALP (72 h, time 3 day) of 1450 IU/L. It also gave an ALT (72 h, time 3 day) of 45.4 IU/L, an AST (72 h, time 3 day) of 68.6 IU/L and a BUN (72 h, time 3 day) of 19.2 mg/dL. For the same molecule, the CRE (72 h, time 3 day) was 0.2 mg/dL, the Ca (72 h, time 3 day) was 10.9 mg/dL and the Cl (72 h, time 3 day) was 107 meq/L. The DBIL (72 h, time 3 day) was 0 mg/dL, the GLC (72 h, time 3 day) was 194.6 mg/dL and the IP (72 h, time 3 day) was 7.6 mg/dL. For the same molecule, the K (72 h, time 3 day) was 4.4 meq/L, the LDH (72 h, time 3 day) was 172.4 IU/L and the Na (72 h, time 3 day) was 140.2 meq/L. It also gave a PL (72 h, time 3 day) of 155.6 mg/dL, an RALB (72 h, time 3 day) of 3 g/dL and a TBIL (72 h, time 3 day) of 0.004 mg/dL. It also gave a TC (72 h, time 3 day) of 78.4 mg/dL, a TG (72 h, time 3 day) of 123.2 mg/dL and a TP (72 h, time 3 day) of 5.7 g/dL. For the same molecule, the gamma-GTP (72 h, time 3 day) was 1.4 IU/L, the TERMINAL_BW ([…], time 7 day) was 267.6 g and the TERMINAL_BW ([…], time 14 day) was 330.7 g. For the same molecule, the TERMINAL_BW ([…], time 28 day) was 391.8 g, the APTT ([…], time 7 day) was 23.2 s and the Bas ([…], time 7 day) was 0%. For the same molecule, the Eos ([…], time 7 day) was 1%, the Fbg ([…], time 7 day) was 338.4 mg/dL and the Hb ([…], time 7 day) was 14.1 g/dL. For the same molecule, the Ht ([…], time 7 day) was 41.1%, the Lym ([…], time 7 day) was 83% and the MCH ([…], time 7 day) was 21.1 pg. It also gave an MCHC ([…], time 7 day) of 34.3%, an MCV ([…], time 7 day) of 61.4 fL and a Mono ([…], time 7 day) of 2.2%. The Neu ([…], time 7 day) was 12.8%, the PT ([…], time 7 day) was 15.4 s and the Plat ([…], time 7 day) was 110.1 x10_4/uL. The RBC ([…], time 7 day) was 671 x10_4/ul, the Ret ([…], time 7 day) was 5.1% and the WBC ([…], time 7 day) was 113 x10_2/uL. The APTT ([…], time 14 day) was 21.6 s, the Bas ([…], time 14 day) was 0% and the Eos ([…], time 14 day) was 0.8%. For the same molecule, the Fbg ([…], time 14 day) was 321.6 mg/dL, the Hb ([…], time 14 day) was 14.4 g/dL and the Ht ([…], time 14 day) was 42.1%. It also gave a Lym ([…], time 14 day) of 80%, an MCH ([…], time 14 day) of 20.5 pg and an MCHC ([…], time 14 day) of 34.2%. It also gave an MCV ([…], time 14 day) of 60.1 fL, a Mono ([…], time 14 day) of 2.4% and a Neu ([…], time 14 day) of 15%. The PT ([…], time 14 day) was 16.3 s, the Plat ([…], time 14 day) was 103.5 x10_4/uL and the RBC ([…], time 14 day) was 701.6 x10_4/ul. For the same molecule, the Ret ([…], time 14 day) was 4.4%, the WBC ([…], time 14 day) was 116.4 x10_2/uL and the APTT ([…], time 28 day) was 26.2 s. For the same molecule, the Bas ([…], time 28 day) was 0%, the Eos ([…], time 28 day) was 1.2% and the Fbg ([…], time 28 day) was 315.8 mg/dL. It also gave a Hb ([…], time 28 day) of 14.7 g/dL, a Ht ([…], time 28 day) of 42.6% and a Lym ([…], time 28 day) of 83.4%. It also gave an MCH ([…], time 28 day) of 19.3 pg, an MCHC ([…], time 28 day) of 34.4% and an MCV ([…], time 28 day) of 56 fL. The Mono ([…], time 28 day) was 2.6%, the Neu ([…], time 28 day) was 11.4% and the PT ([…], time 28 day) was 15.6 s. For the same molecule, the Plat ([…], time 28 day) was 106 x10_4/uL, the RBC ([…], time 28 day) was 761.2 x10_4/ul and the Ret ([…], time 28 day) was 3.1%. For the same molecule, the WBC ([…], time 28 day) was 131.5 x10_2/uL, the KIDNEY_L ([…], time 7 day) was 1.1 g and the KIDNEY_R ([…], time 7 day) was 1.1 g. The KIDNEY_TOTAL ([…], time 7 day) was 2.2 g, the KIDNEY_L ([…], time 14 day) was 1.3 g and the KIDNEY_R ([…], time 14 day) was 1.3 g. It also gave a KIDNEY_TOTAL ([…], time 14 day) of 2.6 g, a KIDNEY_L ([…], time 28 day) of 1.4 g and a KIDNEY_R ([…], time 28 day) of 1.4 g. It also gave a KIDNEY_TOTAL ([…], time 28 day) of 2.8 g, an LIVER ([…], time 7 day) of 12.3 g and an LIVER ([…], time 14 day) of 14.5 g. For the same molecule, the LIVER ([…], time 28 day) was 16.5 g, the A/G ([…], time 7 day) was 1.1 and the ALP ([…], time 7 day) was 1523.4 IU/L. For the same molecule, the ALT ([…], time 7 day) was 43 IU/L, the AST ([…], time 7 day) was 69.6 IU/L and the BUN ([…], time 7 day) was 17.8 mg/dL. The CRE ([…], time 7 day) was 0.2 mg/dL, the Ca ([…], time 7 day) was 10.5 mg/dL and the Cl ([…], time 7 day) was 106.8 meq/L. It also gave a DBIL ([…], time 7 day) of 0 mg/dL, a GLC ([…], time 7 day) of 198 mg/dL and an IP ([…], time 7 day) of 7.3 mg/dL. It also gave a K ([…], time 7 day) of 4.1 meq/L, an LDH ([…], time 7 day) of 200.2 IU/L and a Na ([…], time 7 day) of 142.2 meq/L. It also gave a PL ([…], time 7 day) of 147.6 mg/dL, an RALB ([…], time 7 day) of 3 g/dL and a TBIL ([…], time 7 day) of 0.006 mg/dL. For the same molecule, the TC ([…], time 7 day) was 75.4 mg/dL, the TG ([…], time 7 day) was 91.6 mg/dL and the TP ([…], time 7 day) was 5.6 g/dL. The gamma-GTP ([…], time 7 day) was 1.8 IU/L, the A/G ([…], time 14 day) was 1.2 and the ALP ([…], time 14 day) was 1341.2 IU/L. The ALT ([…], time 14 day) was 41 IU/L, the AST ([…], time 14 day) was 72.6 IU/L and the BUN ([…], time 14 day) was 19.6 mg/dL. For the same molecule, the CRE ([…], time 14 day) was 0.2 mg/dL, the Ca ([…], time 14 day) was 10.5 mg/dL and the Cl ([…], time 14 day) was 106.4 meq/L. For the same molecule, the DBIL ([…], time 14 day) was 0 mg/dL, the GLC ([…], time 14 day) was 196.6 mg/dL and the IP ([…], time 14 day) was 7.2 mg/dL. For the same molecule, the K ([…], time 14 day) was 4 meq/L, the LDH ([…], time 14 day) was 191.2 IU/L and the Na ([…], time 14 day) was 141.6 meq/L. It also gave a PL ([…], time 14 day) of 139.6 mg/dL, an RALB ([…], time 14 day) of 3 g/dL and a TBIL ([…], time 14 day) of 0 mg/dL. It also gave a TC ([…], time 14 day) of 64.2 mg/dL, a TG ([…], time 14 day) of 116.4 mg/dL and a TP ([…], time 14 day) of 5.7 g/dL. It also gave a gamma-GTP ([…], time 14 day) of 1.6 IU/L, an A/G ([…], time 28 day) of 1 and an ALP ([…], time 28 day) of 977.2 IU/L. The ALT ([…], time 28 day) was 41 IU/L, the AST ([…], time 28 day) was 67 IU/L and the BUN ([…], time 28 day) was 19.4 mg/dL. For the same molecule, the CRE ([…], time 28 day) was 0.3 mg/dL, the Ca ([…], time 28 day) was 10.3 mg/dL and the Cl ([…], time 28 day) was 105.8 meq/L. It also gave a DBIL ([…], time 28 day) of 0 mg/dL, a GLC ([…], time 28 day) of 208 mg/dL and an IP ([…], time 28 day) of 6.8 mg/dL. The K ([…], time 28 day) was 4.1 meq/L, the LDH ([…], time 28 day) was 156 IU/L and the Na ([…], time 28 day) was 142.2 meq/L. The PL ([…], time 28 day) was 143.6 mg/dL, the RALB ([…], time 28 day) was 3.1 g/dL and the TBIL ([…], time 28 day) was 0.008 mg/dL. The TC ([…], time 28 day) was 72.8 mg/dL, the TG ([…], time 28 day) was 100.8 mg/dL and the TP ([…], time 28 day) was 6.2 g/dL. It also gave a gamma-GTP ([…], time 28 day) of 2.4 IU/L.
